Patent US12129278B2, “High-affinity peptide for tumor necrosis factor alpha and application thereof” (priority 2017, dated 2024)
Where no end group is shown, it is not given here.

Tests used:
TNF-α protein = TNF-α protein (Homo sapiens, UniProt P01375); assay: ELISA affinity assay of FITC-labeled peptide to coated TNF-α; assay type: binding; details: FIG. 1 / FIG. 2
Description: A 96-well ELISA plate was coated with 2 μg/ml TNF-α solution at 4° C. overnight. Different concentrations of peptide 632 labeled with FITC were added to each well and incubated for 2 h. After incubation, HRP-conjugated anti-FITC monoclonal antibody was added, incubated for 1 h, and then ABTS coloring solution was added. After color development for 1 h, the OD value at 410 nm was measured using a microplate reader, and GraphPad Prism 5 was used for plotting and analysis.
A 96-well ELISA plate was coated with 2 μg/ml TNF-α protein at 4° C. overnight. After blocking with BSA, different concentrations of peptide 632 labeled with FITC were added to each well and incubated for 2 h. After incubation, HRP-conjugated anti-FITC monoclonal antibody was added, incubated for 1 h, and then ABTS coloring solution was added. After color development for 1 h, the OD value at 410 nm was measured using a microplate reader, and GraphPad Prism 5 was used for plotting and analysis.

[1] = tested on: p-xylene induced ear swelling in Kunming mice; assay: p-xylene induced mouse ear swelling model of inflammation; assay type: in vivo; details: male Kunming mice, subcutaneous injection for 3 consecutive days, p-xylene on right auricle, 1 h, versus control group
Description: The experimental animals were divided into three groups: blank group, a non-related peptide control group and an antagonist peptide (peptide 632) group. Using mice as an example, male Kunming mice of 6 weeks old were injected subcutaneously at right abdomen for 3 consecutive days. After the last injection, mice of each group were smeared with p-xylene on both sides of the right auricle. 1 h after the treatment, mice were sacrificed, and the left and right ears of the mice were cut. An ear swelling puncher was used to cut down ears to obtain ear pieces. Swelling degree of mouse ear were obtained by subtracting the weighs of left ear piece from the weighs of right ear piece.
The experimental animals were divided into three groups: blank group, a non-related peptide control group and an antagonist peptide (peptide 632) group. Male Kunming mice of 6 weeks old were injected subcutaneously with peptides at right abdomen for 3 consecutive days. 30 min after the last injection, mice of each group were smeared with p-xylene (0.03 ml/per mouse) on both sides of the right auricle to induce inflammation, and the left auricle was served as normal control. 1 h after the inflammation, animals were sacrificed, and the ears of mice were completely cut and marked to distinguish the left and right ears of the same mouse. […] The ear pieces were weighed together with papers, and the results were recorded. […]

Sequence of TNF-α protein (P01375 77-233 limits assumed, species assumed): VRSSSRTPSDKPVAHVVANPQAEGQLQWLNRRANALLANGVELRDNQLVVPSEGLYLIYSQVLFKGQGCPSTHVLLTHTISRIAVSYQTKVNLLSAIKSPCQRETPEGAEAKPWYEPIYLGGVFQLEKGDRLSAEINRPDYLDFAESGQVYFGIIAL

Row | Substance | binding affinity for TNF-α protein (in words) (TNF-α protein) | swelling degree of mouse ear [1] | swelling degree of mouse ear ([1]; listed as antagonist peptide)
1 | HYIDFRW [peptide 632, HYIDFRW] | high binding affinity | significantly lower than those of the control group | significantly inhibit the swelling of the mouse ear
2 | KASGSPSGFWPS [peptide 636] | high binding affinity | – | –
